# “Also recorded” adds a separate entry of the source.
# What was measured:
# Type in all cases: in vivo, rat
# [1] = Horizontal (irregular) ladder walk after dorsal hemisection of the spinal cord; details: i.c.v. (50 mM, 0.25 μl/hour) or i.v. (260 mM, 10 μl/hour) for 4 weeks
# Procedure: (§1) To test the effects of inosine on spinal cord injury, the dorsal half of the spinal cord in rats was transected, severing the descending CST and other pathways. CST loss severely disrupted fine, skilled behaviors. Inosine was then administered either intra-cerebroventricularly (50 mM, 0.25 μl/hour) or intravenously (260 mM, 10 μl/hour) for 4 weeks. […] Complete transection of the corticospinal tract was verified histologically. The effectiveness of inosine was clinically relevant, since it avoids the risk of intracerebral infection.
# [2] = tested on: sensorimotor cortex infarct; experiment: Lesion size / stroke volume after photothrombotic focal ischemia; details: 4 weeks treatment after focal ischemia
# Procedure: All procedures were carried out in accordance with NIH Guidelines with the approval of Children's Hospital Animal Care and Use Committee. Unilateral in-farcts were induced in the sensorimotor cortex of adult Sprague-Dawley rats (275-300 g; Charles River Laboratories, Wilmington, Mass.) using the photothrombotic model of focal ischemia (Markgraf et al., 1993). Briefly, rats were anesthetized with a combination of ketamine (75 mg/kg) and Domitor (medetomidine; 0.5 mg/kg) and a 15 mm skin incision was made at the midline rostral to the posterior suture. A craniotomy was performed over the sensorimotor cortex using a hand-held drill to open a window that spanned medio-laterally between the sagittal sinus and temporal ridge, and rostro-caudally between Bregma +2.5 mm and Bregma −3.5 mm. […]
# Sections through the telencephalon were cut at 10 μm, mounted on slides, and stained with Crystal Violet to determine the extent of the lesions. […] The area of the injured and uninjured hemisphere of each section was determined using NIH Image-J software. Lesion area was determined by subtracting the area of tissue remaining in the injured hemisphere from that in the uninjured hemisphere in sections spaced 250 μm apart spanning the full rostrocaudal extent of the lesion. […]
# activated caspase-3 = experiment: Activated caspase-3 profiles at the periphery of the stroke; details: standardized area on the periphery of the stroke
# Procedure: A photothrombotic stroke model was used to generate unilateral ischemic lesions centered in the forelimb motor area of the cortex. The infarct area was determined using stereotaxic coordinates and was verified by histological analysis. Lesions were restricted to one hemisphere and included the caudal forelimb area of the primary motor cortex along with varying amounts of adjacent cortex (FIG. 10A and FIGS. 15 and 16). Lesion size varied among animals in each group, but there were no systematic between-group differences (lesion size [in pixels]=85.4±8.2 d [mean±S.E.M] for the saline-treated group and 81.1±8.6 for the inosine-treated group: difference not significant). […] This conclusion is further supported by the absence of any difference between inosine- and saline-treated cases in the number and size of profiles expressing activated caspase-3, as quantified focally in a standardized area on the periphery of the stroke (Caspase-3 profiles in saline-treated group=11.8±1.1, and in inosine treated group=11.9±1.5).
# [3] = Basso-Beatty-Bresnahan (BBB) locomotor test after dorsal hemisection of the spinal cord; details: i.c.v. (50 mM, 0.25 μl/hour) or i.v. (260 mM, 10 μl/hour) for 4 weeks
# Procedure: as §1
# [4] = tested on: corticospinal tract (CST) axons; experiment: BDA anterograde tracing of CST fibers from the undamaged hemisphere into the denervated side of the spinal cord after stroke
# Procedure: All procedures were carried out in accordance with NIH Guidelines with the approval of Children's Hospital Animal Care and Use Committee. Unilateral in-farcts were induced in the sensorimotor cortex of adult Sprague-Dawley rats (275-300 g; Charles River Laboratories, Wilmington, Mass.) using the photothrombotic model of focal ischemia (Markgraf et al., 1993). Briefly, rats were anesthetized with a combination of ketamine (75 mg/kg) and Domitor (medetomidine; 0.5 mg/kg) and a 15 mm skin incision was made at the midline rostral to the posterior suture. A craniotomy was performed over the sensorimotor cortex using a hand-held drill to open a window that spanned medio-laterally between the sagittal sinus and temporal ridge, and rostro-caudally between Bregma +2.5 mm and Bregma −3.5 mm. The photosensitive dye Rose Bengal was injected into the femoral vein, and a fiber-optic cable connected to a xenon light source was centered over the craniotomy, focusing light directly on the exposed region of the brain for 30 minutes. A green filter fitted over the bulb restricted illumination to ˜525 nm, a wavelength that excites Rose Bengal and causes it to release free radical species. The subsequent damage to endothelial cells in exposed portions of the cortical vasculature causes platelet aggregation, resulting in severe focal ischemia. […] Control animals were generated using the same surgical procedure but without photo-activation of Rose Bengal. Animals with strokes were randomly assigned to receive a continuous infusion of either saline (0.9%, Baxter Scientific; n=12), inosine (50 mM in saline, Sigma-Aldrich Co., St. Louis, Mo.; n=12), NEP1-40 (500 μM in 2.5% DMSO/97.5% saline; n=12), or inosine +NEP1-40 (n=12) into the cisterna magna using osmotic minipumps (0.25 μl/h, Alzet model 2004, Durect Corpora-tion, Palo Alto, Calif.). In addition to these, a separate set of animals with the same 4 groups (n=12 in each) was created for a long-term behavioral study. Because CSF drug concentrations presumably require several hours to achieve steady-state levels when delivered via slow-releasing osmotic pumps, all animals received a 25 μl intraventricular bolus of the appropriate agent prior to pump placement. Pumps were tucked between the shoulder blades and infusion needles were secured onto the cranium with a silicon-based glue. The incision was closed with silk sutures and cleaned with betadine and ethanol pads. For 72 hours following surgery, animals received twice-daily, subcu-taneous injections of Buprenex (buprenorphine; Reckitt Benkiser Pharmaceuticals Inc., Richmond, Va.) for pain management.
# In groups treated for four weeks after stroke, animals were re-anesthetized, the infusion needle and pump were removed, and a craniotomy was performed over the uninjured SMA. The anterograde tracer bioti-nylated dextran amine (BDA: Molecular Probes: 10% wt/vol in sterile saline) was injected stereotaxically at depths of 0.5, 1.0, and 2.0 mm below the cortical surface at 18 standardized points distributed over the sensorimotor cortex (70 nl per injection; Nano-ject, Drummond Scientific, Broomall, Pa.). Two weeks later, animals were anesthetized and perfused transcardially with 0.9% saline followed by 4% paraformaldehyde. The brain and spinal cord were dissected and post-fixed overnight in 4% paraformaldehyde, followed by 10% and 30% sucrose solutions over the next few days. Tissue was em-bedded in OCT Tissue Tek Medium (Sakura Finetek USA Inc., CA) and frozen on dry ice. Forty micron free-floating sections were cut in the coronal plane on a Frigo-Jung 8500 cryostat. Free-floating spinal cord sections were used to detect crossing fibers using avidin-biotin complex conjugated to horseradish peroxidase (Vectastain ABC Kit; Vector Laboratories), followed by Vector SG (Vector Laboratories) as a chromagen. Sections were mounted on pre-coated slides and lightly counterstained with eosin to distinguish grey and white matter boundaries. […]
# [5] = tested on: raphespinal fibers and corticospinal tract axons; experiment: Anatomical sprouting of raphespinal and corticospinal tract axons after spinal cord injury; details: after dorsal hemisection
# Procedure: as §1
# [6] = 4 weeks treatment after stroke, vs saline
smiles,measurement,setting,value
OC[C@H]1O[C@@H](n2cnc3c(O)ncnc32)[C@H](O)[C@@H]1O [inosine],performance on horizontal ladder walk,[1],enhanced performance; also recorded: far superior to saline-treated controls
same,lesion size (mean±S.E.M),[2],81.1±8.6 pixels
same,Caspase-3 profiles,activated caspase-3,11.9±1.5
same,performance on BBB test for general locomotor activity,[3],enhanced performance; also recorded: returned to near-normal level of performance
same,number of synaptic bouton-like structures,"[4]; 0.25 mm^2 box spanning Laminae VI and VII, vs saline",tripled
same,increase in number of labeled fibers ≧40 μm in gray matter on the denervated side,[4]; [6],2.5 fold
same,increase in number of lengthy axons (>200 μm) in gray matter on the denervated side,[4]; [6],3.5 fold
same,"number of BDA-labeled CST fibers, inosine- vs saline-treated",[4]; CST axons labeled two weeks after stroke,No significant differences
same,"increase in number of CST fibers re-crossing the midline to enter the denervated dorsal funiculus, relative to controls",[4]; inosine 50 mM infusion 4 weeks after stroke,three-fold
same,number of CST fibers in the denervated dorsal funiculus relative to NEP1-40 alone,[4]; inosine combined with NEP1-40,did not increase
same,number of axons >40 μm in the cervical gray matter relative to NEP1-40 alone,[4]; inosine combined with NEP1-40,strongly increased
same,number of axons >200 μm in the cervical gray matter relative to NEP1-40 alone,[4]; inosine combined with NEP1-40,strongly increased
same,long-distance corticospinal tract regeneration,[5],modest effects
same,sprouting of corticospinal tract axons rostral to the injury site,[5],enhanced the sprouting
same,sprouting of raphespinal fibers distal to the injury site,[5],enhanced the sprouting
